# Source: PMC12592502, “Unraveling the mechanisms behind the enhanced efficacy of β-lactam-based sideromycins” (Communications Biology, 2025)
# Where two headings read alike, the source gives them in different places.
# What was measured:
# E. coli ΔacrAB = assay: MIC, efflux pump mutant; format: cell-based, Escherichia coli
# Description: (§1) Minimal inhibitory concentrations (MICs) were performed using a broth microdilution technique according to the Clinical and Laboratory Standards Institute (CLSI) guidelines. MICs were determined in MHBCA and in ID-MHBCA. To check the impact of β-lactamases, MICs in the presence of a β-lactamase inhibitor were also determined. The inhibitor was homogenized at 2X the final concentration and added to the bacterial inoculum just before distributing cells into the wells containing the drug dilutions. The final concentration of each inhibitor was 4 μg/mL for clavulanic acid (tested against K. pneumoniae) and 200 μg/mL for 3-aminophenylboronic acid (tested against P. aeruginosa and A. baumannii).
# P. aeruginosa 1020 = assay: MIC, parent of efflux pump mutants; format: cell-based, Pseudomonas aeruginosa
# Description: as §1
# [1] = system: P. aeruginosa 2302 MexAB, MexCD, MexEF upregulated; assay: MIC, efflux pump overexpressing strain; format: cell-based, Pseudomonas aeruginosa
# Description: as §1
# A. baumannii ATCC 19606 = assay: MIC, broth microdilution (CLSI); format: cell-based, Acinetobacter baumannii; details: for MIC in combination with PAβN: + 25 µg/mL PAβN
# Description: (§2) All bacterial strains (see description and sources Table S1) were stored at −80 °C, and grown on tryptone soya agar (TSA) at 35 °C. The iron-deprived (ID)-MHBCA (cation-adjusted Muller-Hinton Broth, Becton Dickinson, Mississauga, ON, Canada) medium was prepared as reported by refs. [21],[50]. Briefly, MHBCA was treated with 10% Chelex® 50-100 mesh (Sigma) and stirred for 6 h at room temperature. The resin was removed by filtration. Divalent Ca^2+ (CaCl2), Mg^2+ (MgCl2), and Zn^2+(ZnSO4), were then added in the iron-depleted medium at 22, 12, and 1 μg/ml respectively. Finally, the pH was adjusted to 7.3, and the medium was sterilized with a 0.2-μm filter. Regular MHBCA (i.e., not treated with Chelex®) was used to compare the inhibitory activity of conjugates in iron-sufficient conditions. The resin used for Chelex treatment was always fresh and had never been regenerated, ensuring consistent iron removal.
# as §1
# E. coli lptD4213 = assay: MIC, hyperpermeable mutant; format: cell-based, Escherichia coli
# Description: as §2, §1
# P. aeruginosa ATCC 27853 = assay: MIC, broth microdilution (CLSI); format: cell-based, Pseudomonas aeruginosa; details: for MIC in combination with PAβN: + 25 µg/mL PAβN
# Description: as §2, with “conditions.” for “conditions. The resin used for Chelex treatment was always fresh and had never been regenerated, ensuring consistent iron removal.”
# as §1
# [2] = system: P. aeruginosa 1624 ΔmexCD-oprJ, ΔmexEF-oprN; assay: MIC, efflux pump mutant; format: cell-based, Pseudomonas aeruginosa
# Description: as §1
# [3] = system: P. aeruginosa 1625 ΔmexAB-oprM, ΔmexEF-oprN; assay: MIC, efflux pump mutant; format: cell-based, Pseudomonas aeruginosa
# Description: as §1
# E. coli Δfiu = assay: MIC, Keio mutant; format: cell-based, Escherichia coli
# Description: as §2, with “conditions.” for “conditions. The resin used for Chelex treatment was always fresh and had never been regenerated, ensuring consistent iron removal.”
# as §1
# E. coli ΔfhuA = assay: MIC, Keio mutant; format: cell-based, Escherichia coli
# Description: as §2, with “conditions.” for “conditions. The resin used for Chelex treatment was always fresh and had never been regenerated, ensuring consistent iron removal.”
# as §1
# E. coli ΔcirA = assay: MIC, Keio mutant; format: cell-based, Escherichia coli
# Description: as §2, with “conditions.” for “conditions. The resin used for Chelex treatment was always fresh and had never been regenerated, ensuring consistent iron removal.”
# as §1
# [4] = Acinetobacter baumannii, ATCC19606, ID-MHBCA (−), 0 µg/mL supplemental iron, read-out: MIC
# [5] = Acinetobacter baumannii, ATCC19606, ID-MHBCA + 1 µg/mL supplemental iron, read-out: MIC
# [6] = Acinetobacter baumannii, ATCC19606, ID-MHBCA, + 200 μg/mL APB, read-out: MIC with β-lactamase inhibitor (βI)
# [7] = Acinetobacter baumannii, ATCC19606, MHBCA (+), no inhibitor, read-out: MIC
# [8] = Acinetobacter baumannii, ATCC19606, MHBCA, + 200 μg/mL APB, read-out: MIC with β-lactamase inhibitor (βI)
# [9] = ID-MHBCA (−), 0 µg/mL supplemental iron, read-out: MIC
# [10] = MHBCA (+), no inhibitor, read-out: MIC
# [11] = Escherichia coli, LPTD4213, lptD4213, ID-MHBCA (−)
# [12] = Escherichia coli, LPTD4213, lptD4213, MHBCA (+)
# [13] = Pseudomonas aeruginosa, ATCC27853, ID-MHBCA (−), 0 µg/mL supplemental iron, read-out: MIC
# [14] = Pseudomonas aeruginosa, ATCC27853, ID-MHBCA + 1 µg/mL supplemental iron, read-out: MIC
# [15] = Pseudomonas aeruginosa, ATCC27853, ID-MHBCA, + 200 μg/mL APB, read-out: MIC with β-lactamase inhibitor (βI)
# [16] = Pseudomonas aeruginosa, ATCC27853, MHBCA (+), no inhibitor, read-out: MIC
# [17] = Pseudomonas aeruginosa, ATCC27853, MHBCA, + 200 μg/mL 3-aminophenylboronic acid (APB), read-out: MIC with β-lactamase inhibitor (βI)
# [18] = ID-MHBCA + 1 µg/mL supplemental iron, read-out: MIC
# [19] = ID-MHBCA, + 200 μg/mL APB, read-out: MIC with β-lactamase inhibitor (βI)
SMILES,MIC (E. coli ΔacrAB; Escherichia coli) [µM],MIC ([1]; Pseudomonas aeruginosa) [µM],MIC (A. baumannii ATCC 19606; [4]) [µM],MIC (A. baumannii ATCC 19606; [5]) [µM],MIC (A. baumannii ATCC 19606; [6]) [µM],MIC (A. baumannii ATCC 19606; [7]) [µM],MIC (A. baumannii ATCC 19606; [8]) [µM],MIC (A. baumannii ATCC 19606; [9]) [µM],MIC (A. baumannii ATCC 19606; [10]) [µM],MIC in combination with PAβN (A. baumannii ATCC 19606; MHBCA) [µM],MIC (E. coli lptD4213; [11]) [µM],MIC (E. coli lptD4213; [12]) [µM],"MIC (E. coli lptD4213; lptD4213, MHBCA (+)) [µM]",MIC (P. aeruginosa ATCC 27853; [9]) [µM],MIC (P. aeruginosa ATCC 27853; [10]) [µM],MIC in combination with PAβN (P. aeruginosa ATCC 27853; MHBCA) [µM],MIC (P. aeruginosa ATCC 27853; [13]) [µM],MIC (P. aeruginosa ATCC 27853; [14]) [µM],MIC (P. aeruginosa ATCC 27853; [15]) [µM],MIC (P. aeruginosa ATCC 27853; [16]) [µM],further results
"CC1(C)S[C@@H]2[C@H](NC(=O)[C@H](N)c3ccccc3)C(=O)N2[C@H]1C(=O)O [AMP, ampicillin, reference compound]",6.3,> 200,> 200,> 200,> 200,> 200,> 200,>200,>200,> 200,0.4,0.4,0.4,>200,>200,> 200,> 200,> 200,100,> 200,"MIC (P. aeruginosa 1020; Pseudomonas aeruginosa, 1020): > 200 µM; MIC (P. aeruginosa ATCC 27853; [17]): 100 µM; MIC ([2]; Pseudomonas aeruginosa): > 200 µM; MIC ([3]; Pseudomonas aeruginosa): > 200 µM; MIC (E. coli Δfiu; Escherichia coli, ID-MHBCA): 25 µM; MIC (E. coli ΔfhuA; Escherichia coli, ID-MHBCA): 25 µM; MIC (E. coli ΔcirA; Escherichia coli, ID-MHBCA): 25 µM"
"O=C(CCC(=O)N(CCCCNC(=O)c1cccc(O)c1O)CCCNC(=O)c1cccc(O)c1O)NCCCCCN(O)C(=O)CCCC(=O)NC(C(=O)NC1C(=O)N2C(C(=O)O)=C(Cl)CSC12)c1ccccc1 (stereo not shown) [MCEF, mixed ligand bis-catechol-mono-hydroxamate-cefaclor]",3.1,> 100,0.2,> 6.3,0.012,1.6,0.4,,,> 6.3,1.6,1.6,,>200,>200,> 200,> 200,> 200,> 200,> 200,"MIC (P. aeruginosa 1020; Pseudomonas aeruginosa, P. aeruginosa 1020, read-out: MIC): > 100 µM; MIC (A. baumannii ATCC 19606; Acinetobacter baumannii, ATCC19606, ID-MHBCA + 0.1 µg/mL supplemental iron, read-out: MIC): 1.6 µM; MIC ratio unconjugated β-lactam/conjugate (A. baumannii ATCC 19606; ID-MHBCA): >1024; MIC ratio 0/1 (A. baumannii ATCC 19606; ID-MHBCA, 0 and 1 µg/mL supplemental iron (Table S2)): > 32; MIC ratio 1/0 (A. baumannii ATCC 19606; ID-MHBCA, 1 versus 0 µg/mL supplemental iron (peer review file table)): > 32; MIC ratio unconjugated β-lactam/conjugate (A. baumannii ATCC 19606; MHBCA): >128; MIC ratio unconjugated β-lactam/conjugate (P. aeruginosa ATCC 27853; ID-MHBCA): No activity; MIC ratio unconjugated β-lactam/conjugate (P. aeruginosa ATCC 27853; MHBCA): No activity; MIC (P. aeruginosa ATCC 27853; MHBCA (+), no inhibitor, listed as Mix-CEF, read-out: MIC): > 200 µM; MIC (P. aeruginosa ATCC 27853; [17]): > 200 µM; MIC ([2]; Pseudomonas aeruginosa): > 100 µM; MIC ([3]; Pseudomonas aeruginosa): > 100 µM; MIC (E. coli Δfiu; Escherichia coli, ID-MHBCA): > 200 µM; MIC (E. coli Δfiu; Escherichia coli, MHBCA): 100 µM; MIC (E. coli ΔfhuA; Escherichia coli, ID-MHBCA): > 200 µM; MIC (E. coli ΔfhuA; Escherichia coli, MHBCA): 13 µM; MIC (E. coli ΔcirA; Escherichia coli, ID-MHBCA): > 200 µM; MIC (E. coli ΔcirA; Escherichia coli, MHBCA): > 200 µM; MIC (E. coli ΔcirA; MHBCA): >200 µM"
"N[C@@H](C(=O)N[C@@H]1C(=O)N2C(C(=O)O)=C(Cl)CC[C@H]12)c1ccccc1 [LOR, loracarbef, reference compound]",,,,,,,,>200,>200,> 200,,,1.6,>200,>200,> 200,,,,,"MIC (E. coli ΔacrAB; ΔacrAB): 3.1 µM; MIC (P. aeruginosa 1020; P. aeruginosa 1020, read-out: MIC): > 200 µM; MIC ([1]; P. aeruginosa 2302): > 200 µM; MIC (A. baumannii ATCC 19606; [18]): > 200 µM; MIC (A. baumannii ATCC 19606; [19]): >200 µM; MIC (A. baumannii ATCC 19606; MHBCA, + 200 μg/mL APB, read-out: MIC with β-lactamase inhibitor (βI)): >200 µM; MIC (E. coli lptD4213; lptD4213, ID-MHBCA (−)): 1.6 µM; MIC (P. aeruginosa ATCC 27853; [18]): > 200 µM; MIC (P. aeruginosa ATCC 27853; [19]): >200 µM; MIC (P. aeruginosa ATCC 27853; MHBCA, + 200 μg/mL 3-aminophenylboronic acid (APB), read-out: MIC with β-lactamase inhibitor (βI)): >200 µM; MIC ([2]; P. aeruginosa 1624): > 200 µM; MIC ([3]; P. aeruginosa 1625): > 200 µM; MIC (E. coli Δfiu; ID-MHBCA): 6.3 µM; MIC (E. coli Δfiu; MHBCA): 6.3 µM; MIC (E. coli ΔfhuA; ID-MHBCA): 6.3 µM; MIC (E. coli ΔfhuA; MHBCA): 6.3 µM; MIC (E. coli ΔcirA; ID-MHBCA): 13 µM; MIC (E. coli ΔcirA; MHBCA): 13 µM"
